Tests used:
Format in all cases: in vivo
[1] = tested on: ryegrass, Italian (Italian ryegrass, Lolium multiflorum); assay: Test A postemergence, ryegrass, Italian; settings: Lolium multiflorum, post-emergence, 240 h, 0 to 100 scale (0 no effect, 100 complete control), read-out: Plant response rating, Ryegrass, Italian
[2] = tested on: galium (catchweed bedstraw, Galium aparine); assay: Test A postemergence, galium; settings: Galium, post-emergence, 240 h, 0 to 100 scale (0 no effect, 100 complete control), read-out: Plant response rating, Galium
kochia (Kochia scoparia) [3] = assay: Test A preemergence, kochia; settings: Bassia scoparia, pre-emergence, 240 h, 0 to 100 scale (0 no effect, 100 complete control), read-out: Plant response rating, Kochia
[4] = tested on: ragweed (common ragweed, Ambrosia elatior); assay: Test A preemergence, ragweed; settings: Ambrosia artemisiifolia, pre-emergence, 240 h, 0 to 100 scale (0 no effect, 100 complete control), read-out: Plant response rating, Ragweed
[5] = tested on: pigweed (Amaranthus retroflexus); assay: Test A preemergence, pigweed; settings: Amaranthus retroflexus, pre-emergence, 240 h, 0 to 100 scale (0 no effect, 100 complete control), read-out: Plant response rating, Pigweed
kochia (Kochia scoparia) [6] = assay: Test A postemergence, kochia; settings: Bassia scoparia, post-emergence, 240 h, 0 to 100 scale (0 no effect, 100 complete control), read-out: Plant response rating, Kochia
[7] = tested on: foxtail, green (green foxtail, Setaria viridis); assay: Test A postemergence, foxtail, green; settings: Setaria, post-emergence, 240 h, 0 to 100 scale (0 no effect, 100 complete control), read-out: Plant response rating, Foxtail, Green
From the text: Seeds of plant species selected from barnyardgrass (Echinochloa crus-galli), kochia (Kochia scoparia), ragweed (common ragweed, Ambrosia elatior), ryegrass, Italian (Italian ryegrass, Lolium multiflorum), foxtail, giant (giant foxtail, Setaria faberii), foxtail, green (green foxtail, Setaria viridis) and pigweed (Amaranthus retroflexus) were planted into a blend of loam soil and sand and treated preemergence with a directed soil spray using test chemicals formulated in a non-phytotoxic solvent mixture which included a surfactant.
At the same time, plants selected from these weed species and also wheat (Triticum aestivum), corn (Zea mays), blackgrass (Alopecurus myosuroides), and galium (catchweed bedstraw, Galium aparine) were planted in pots containing the same blend of loam soil and sand and treated with postemergence applications of test chemicals formulated in the same manner. Plants ranged in height from 2 to 10 cm and were in the one- to two-leaf stage for the postemergence treatment. Treated plants and untreated controls were maintained in a greenhouse for approximately 10 days, after which time all treated plants were compared to untreated controls and visually evaluated for injury. […] A dash (-) response means no test result.

[8] = tested on: blackgrass (Alopecurus myosuroides); assay: Test A postemergence, blackgrass; settings: Alopecurus myosuroides, post-emergence, 240 h, 0 to 100 scale (0 no effect, 100 complete control), read-out: Plant response rating, Blackgrass
[9] = tested on: ragweed (common ragweed, Ambrosia elatior); assay: Test A postemergence, ragweed; settings: Ambrosia artemisiifolia, post-emergence, 240 h, 0 to 100 scale (0 no effect, 100 complete control), read-out: Plant response rating, Ragweed
[10] = tested on: barnyardgrass (Echinochloa crus-galli); assay: Test A postemergence, barnyardgrass; settings: Echinochloa crus-galli, post-emergence, 240 h, 0 to 100 scale (0 no effect, 100 complete control), read-out: Plant response rating, Barnyardgrass
[11] = tested on: pigweed (Amaranthus retroflexus); assay: Test A postemergence, pigweed; settings: Amaranthus retroflexus, post-emergence, 240 h, 0 to 100 scale (0 no effect, 100 complete control), read-out: Plant response rating, Pigweed
[12] = tested on: wheat (Triticum aestivum); assay: Test A postemergence, wheat; settings: Triticum aestivum, post-emergence, 240 h, 0 to 100 scale (0 no effect, 100 complete control), read-out: Plant response rating, Wheat
corn (Zea mays) = assay: Test A postemergence, corn; settings: Zea mays, post-emergence, 240 h, 0 to 100 scale (0 no effect, 100 complete control)
[13] = tested on: barnyardgrass (Echinochloa crus-galli); assay: Test A preemergence, barnyardgrass; settings: Echinochloa crus-galli, pre-emergence, 240 h, 0 to 100 scale (0 no effect, 100 complete control), read-out: Plant response rating, Barnyardgrass
[14] = tested on: ryegrass, Italian (Italian ryegrass, Lolium multiflorum); assay: Test A preemergence, ryegrass, Italian; settings: Lolium multiflorum, pre-emergence, 240 h, 0 to 100 scale (0 no effect, 100 complete control), read-out: Plant response rating, Ryegrass, Italian

O=C1CC(CCC(F)(F)F)c2c(Oc3ncc(Cl)cn3)cccc21 (stereo not drawn) [Compound 11, 4-[(5-Chloro-2-pyrimidinyl)oxy]-2,3-dihydro-3-(3,3,3-trifluoropropyl)-1H-inden-1-one]
0%: pest or weed control at 31 g/ha (kochia (Kochia scoparia) [3]; 31 g ai/ha) | pest or weed control at 31 g/ha ([4]; 31 g ai/ha) | pest or weed control at 125 g/ha ([4]; 125 g ai/ha) | pest or weed control at 31 g/ha ([7]; 31 g ai/ha) | pest or weed control at 31 g/ha ([8]; 31 g ai/ha) | pest or weed control at 31 g/ha ([9]; 31 g ai/ha) | plant injury at 31 g/ha ([12]; 31 g ai/ha) | Corn plant response rating (crop injury, 0 = no effect, 100 = complete kill) at 31 g/ha (corn (Zea mays); 31 g ai/ha) | pest or weed control at 31 g/ha ([13]; 31 g ai/ha) | pest or weed control at 31 g/ha ([14]; 31 g ai/ha)
20%: pest or weed control at 125 g/ha (kochia (Kochia scoparia) [3]; 125 g ai/ha) | pest or weed control at 31 g/ha (kochia (Kochia scoparia) [6]; 31 g ai/ha) | pest or weed control at 125 g/ha ([8]; 125 g ai/ha) | pest or weed control at 31 g/ha ([10]; 31 g ai/ha) | pest or weed control at 125 g/ha ([14]; 125 g ai/ha)
30%: pest or weed control at 31 g/ha ([1]; 31 g ai/ha) | pest or weed control at 125 g/ha ([10]; 125 g ai/ha)
10%: pest or weed control at 31 g/ha ([2]; 31 g ai/ha) | pest or weed control at 31 g/ha ([5]; 31 g ai/ha) | pest or weed control at 125 g/ha ([7]; 125 g ai/ha) | pest or weed control at 125 g/ha ([9]; 125 g ai/ha) | plant injury at 125 g/ha ([12]; 125 g ai/ha) | Corn plant response rating (crop injury, 0 = no effect, 100 = complete kill) at 125 g/ha (corn (Zea mays); 125 g ai/ha)
40%: pest or weed control at 125 g/ha ([1]; 125 g ai/ha) | pest or weed control at 125 g/ha ([2]; 125 g ai/ha) | pest or weed control at 31 g/ha ([11]; 31 g ai/ha)
100%: pest or weed control at 125 g/ha ([5]; 125 g ai/ha)
50%: pest or weed control at 125 g/ha (kochia (Kochia scoparia) [6]; 125 g ai/ha) | pest or weed control at 125 g/ha ([11]; 125 g ai/ha) | pest or weed control at 125 g/ha ([13]; 125 g ai/ha)

From patent publication US11427549B2, “Pyrimidinyloxy benzo-fused compounds as herbicides” (FMC Corporation, priority 2017, dated 2022)
